Literature values as cited in US20040258741A1, “Percutaneous absorption preparations” (priority 2001, published 2004).
Where a name gives a salt, the structure may show the parent alone.

How the values were obtained:
AChE [1] = target: T1, AChE (Homo sapiens, UniProt P22303)
AChE [2] = target: T1, AChE; conditions: in vitro
intracranial ACh = conditions: in vivo

T1 sequence (P22303 32-614): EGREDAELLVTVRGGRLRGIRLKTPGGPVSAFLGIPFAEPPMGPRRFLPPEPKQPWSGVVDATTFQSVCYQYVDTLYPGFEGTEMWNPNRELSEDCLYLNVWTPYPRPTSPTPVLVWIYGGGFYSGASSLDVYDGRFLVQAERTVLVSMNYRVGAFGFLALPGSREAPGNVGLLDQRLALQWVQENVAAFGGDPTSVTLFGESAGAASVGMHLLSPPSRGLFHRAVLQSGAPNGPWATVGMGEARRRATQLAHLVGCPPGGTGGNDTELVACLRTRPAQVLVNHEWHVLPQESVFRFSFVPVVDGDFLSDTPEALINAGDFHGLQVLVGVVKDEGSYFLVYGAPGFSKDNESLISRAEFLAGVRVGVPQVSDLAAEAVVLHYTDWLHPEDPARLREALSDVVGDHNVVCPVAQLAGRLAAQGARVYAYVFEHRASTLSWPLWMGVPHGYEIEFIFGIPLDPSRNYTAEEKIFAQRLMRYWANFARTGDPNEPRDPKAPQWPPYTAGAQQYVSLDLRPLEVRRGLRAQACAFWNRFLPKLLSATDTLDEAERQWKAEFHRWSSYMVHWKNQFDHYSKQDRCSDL

SMILES | in vitro AChE inhibition action compared with Donepezil (AChE [1]) | AChE selectivity compared with tacrine (AChE [2]) | intracranial ACh (intracranial ACh)
COc1cc2c(cc1OC)C(=O)C(F)(CC1CCN(Cc3cccc(F)c3)CC1)C2 (stereo not drawn) [ER-127528, 4-[(5,6-dimethoxy-2-fluoro-1-indanon)-2-yl]methyl-1-(3-fluorobenzyl)piperidine hydrochloride] | stronger in vitro AChE inhibition action than Donepezil | – | –
O=C(O)/C=C\C(=O)O.O=C1Cc2cc3c(CCC4CCN(Cc5ccccc5)CC4)noc3cc2N1 [Icopezil, 5,7-dihydro-3-[2-[1-(phenylmethyl)-4-piperidinyl]ethyl]-6H-pyrrolo-[4,5-f]-1,2-benzisoxazol-6-one maleate] | – | higher AChE selectivity than the existing AChE inhibitor tacrine | clearly increases intracranial ACh in vivo
